Where “and” joins values, the source holds several entries; their conditions need not be identical. Identical values can stand only once. Like-named read-outs stand apart in the source and are kept apart here.
Assays:
AChE (EC 3.1.1.7) = target: T1, AChE (EC 3.1.1.7) (Electrophorus electricus, UniProt O42275); assay: biochemical; format: biochemical; conditions: for IC50: sample concentration that led to 50% enzyme activity loss, mean ± SD, triplicate
T1 construct: AChE (EC 3.1.1.7, from electric eel); purchased Aladdin Industrial Co., Ltd. (Shanghai, China); host or cells: electric eel (natural source)
Description: (§1) AChE (EC 3.1.1.7, from electric eel), BChE (EC 3.1.1.8, from equine serum), acetylthiocholine iodide (ATCI), butyrylthiocholine iodide (BTCI), and 5,5′-dithiobis (2-nitrobenzoic acid) (DTNB) were purchased from Aladdin Industrial Co., Ltd. (Shanghai, China).
(§2) Briefly, AChE and BChE solutions (0.2 units/mL) and ATCI, BTCI, and DTNB solutions (10 mM) were prepared in PBS solution (0.1 M, pH 8.0). The test compound stock solutions (10 mM) were made using methanol, and five different concentrations of each compound were prepared by doubling the dilution with methanol to determine the half-maximal inhibitory concentration (IC50). Firstly, 160 μL of PBS, 2 μL of the test samples, 20 μL of AChE or BChE, and 10 μL of DTNB were mixed and preincubated at 37 °C for 10 min. Thereafter, 10 μL of ATCI or BTCI was added to initiate the reaction, which was incubated at 37 °C for 25 min. The absorbance was measured at 412 nm during incubation. The inhibition rate was calculated using the following formula: IR% = [(Ac − As)]/(Ac − Ab] × 100%, where Ab denotes the absorbance of the blank control (20 μL of water replacing the enzyme solution), Ac represents the absorbance of the control (2 μL of methanol replacing the sample solutions), and As denotes the absorbance of the sample. All of the tests for each sample were performed in triplicate. The IC50 value of each compound was obtained by plotting the inhibition rate against the logarithm of its concentration, and the data were expressed as the mean ± SD.

BChE (EC 3.1.1.8) [1] = target: T2, BChE (EC 3.1.1.8) (Equus caballus, UniProt P81908); assay: BChE inhibitory activity assay (modified Ellman's method); format: biochemical; conditions: for IC50: sample concentration that led to 50% enzyme activity loss, mean ± SD, triplicate; for BChE inhibitory effect, in words: up to 100 μM where stated
T2 construct: BChE (EC 3.1.1.8, from equine serum); purchased Aladdin Industrial Co., Ltd. (Shanghai, China); host or cells: equine serum (natural source)
Description: as §1, §2

BChE (EC 3.1.1.8) [2] = target: T2, BChE (EC 3.1.1.8); assay: Kinetic study of BChE inhibition (Lineweaver–Burk and secondary plots); format: biochemical; conditions: for BChE Inhibition Type: Lineweaver–Burk plots; for BChE αKi: from secondary plot of 1/Vmax vs [I], binding to ES complex; for BChE α (thermodynamic cooperativity factor): αKi/Ki
Description: To determine the inhibition modes of the compounds, enzyme kinetic studies were carried out for the structurally representative inhibitors, namely, compounds 1, 8, 9, 11, and 14. […] For this type of interaction, inhibitors can bind to the free enzyme (E) and the enzyme–substrate (ES) complex, forming EI and ESI complexes, respectively. The Ki and αKi values for the inhibitors were determined from the secondary plots of the slope (Km/Vm) and the vertical intercept (1/Vm) from the Lineweaver–Burk plot as functions of the inhibitor concentration, respectively (Figure S2 in Supplementary Materials), and the thermodynamic cooperativity factor α differed among the five structurally diverse inhibitors (Table 3).
as §1
Using the same protocol as the inhibitory activity assay, kinetic studies of BChE inhibition were performed with a series of concentrations of substrate BTCI, namely, 0.1, 0.2, 0.3, 0.4, and 0.5 mM or 0.2, 0.4, 0.5, 0.6, and 0.7 mM. Three concentrations of each test compound were selected according to the IC50 value. The detection of absorbance was conducted during the enzymatic reaction at 10 min, 20 min, and 25 min. The change in absorbance per minute was referred to as the velocity of the enzyme-promoting reaction. The Lineweaver–Burk plots (double-reciprocal plots) were created by plotting the reciprocal of velocity (1/V) against the reciprocal of BTCI concentration (1/[BTCI]) for a compound at three concentrations, and the kinetic parameters, Michaelis constant (Km), and maximum velocity (Vmax) obtained therefrom were used to check the inhibition modes. The value of the inhibitor constant Ki was determined by referencing the secondary plot of the slope of the double-reciprocal lines (from the Lineweaver–Burk plot) as a function of [I], and the x intercept was equal to −Ki. Another secondary plot was fitted by 1/Vmax as a function of the inhibitor concentration [I], and the value of −αKi can be determined to be the x intercept therefrom.

[3] = cis-trans photoisomerization under UV exposure (HPLC detection); format: physicochemical; conditions: UV exposure at 254 and 365 nm
Description: The NMR data of 6 (Table 1 and Table 2) were identical to those of nigranol A previously isolated from Morus nigra Linn. The Δ7,8 double bond of nigranol A was formerly determined to be a Z-configuration according to the relatively large coupling constant (12.8 Hz) between H-8 and H-9, which is not applicable and convincing in view of the freely rotating single bond between C-8 and C-9. […] Fortunately, the crystals of compounds 1 and 6 were obtained, and single-crystal X-ray diffraction (XRD) analyses were conducted to determine the configuration of the Δ7,8 double bond. As a result, the isobutene moiety (C-9) and the carbonyl group (C-13), the larger substituent groups for C-8 and C-7, respectively, existed in cis- and trans-conformations in compounds 1 and 6, respectively (Figure 3). Therefore, compound 1 was determined to be (Z)-6-hydroxy-3-(3-methylbut-2-en-1-ylidene)benzofuran-2(3H)-one and named albaphenol A, while nigranol A (6) was revised as (E)-6-hydroxy-3-(3-methylbut-2-en-1-ylidene)benzofuran-2(3H)-one. […] Due to the cis–trans tautomerism also taking place slowly under natural light, the samples were stored in a 4 °C refrigerator under dark conditions, and the crystallizations of the two compounds were induced in nearly saturated methanol solution under the same conditions.

BChE [4] = test system: BChE; parameters: method as in PMID 29786669; conditions: read-out: BChE IC50 in previous research; cited from earlier work
BChE [5] = test system: BChE; parameters: method as in PMID 31459768; conditions: cited from earlier work
[6] = from secondary plot of slope of Lineweaver–Burk lines vs [I], binding to free enzyme, read-out: BChE Ki

T2 sequence (P81908 whole entry): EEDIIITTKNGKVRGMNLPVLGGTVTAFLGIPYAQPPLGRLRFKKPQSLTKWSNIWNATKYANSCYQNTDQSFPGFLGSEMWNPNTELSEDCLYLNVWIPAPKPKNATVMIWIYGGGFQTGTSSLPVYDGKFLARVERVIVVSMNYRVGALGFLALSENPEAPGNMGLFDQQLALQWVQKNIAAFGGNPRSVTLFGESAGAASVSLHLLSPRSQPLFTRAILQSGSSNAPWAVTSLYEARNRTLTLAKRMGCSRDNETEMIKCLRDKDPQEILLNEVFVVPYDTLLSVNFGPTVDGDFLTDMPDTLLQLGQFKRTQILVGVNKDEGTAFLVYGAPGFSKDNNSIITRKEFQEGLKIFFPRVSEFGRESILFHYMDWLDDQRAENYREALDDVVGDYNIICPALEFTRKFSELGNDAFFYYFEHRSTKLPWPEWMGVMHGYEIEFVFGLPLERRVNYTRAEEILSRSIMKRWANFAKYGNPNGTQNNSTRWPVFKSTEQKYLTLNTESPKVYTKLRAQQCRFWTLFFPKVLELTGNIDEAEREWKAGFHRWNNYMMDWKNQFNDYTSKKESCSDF
T1 sequence (O42275 24-633): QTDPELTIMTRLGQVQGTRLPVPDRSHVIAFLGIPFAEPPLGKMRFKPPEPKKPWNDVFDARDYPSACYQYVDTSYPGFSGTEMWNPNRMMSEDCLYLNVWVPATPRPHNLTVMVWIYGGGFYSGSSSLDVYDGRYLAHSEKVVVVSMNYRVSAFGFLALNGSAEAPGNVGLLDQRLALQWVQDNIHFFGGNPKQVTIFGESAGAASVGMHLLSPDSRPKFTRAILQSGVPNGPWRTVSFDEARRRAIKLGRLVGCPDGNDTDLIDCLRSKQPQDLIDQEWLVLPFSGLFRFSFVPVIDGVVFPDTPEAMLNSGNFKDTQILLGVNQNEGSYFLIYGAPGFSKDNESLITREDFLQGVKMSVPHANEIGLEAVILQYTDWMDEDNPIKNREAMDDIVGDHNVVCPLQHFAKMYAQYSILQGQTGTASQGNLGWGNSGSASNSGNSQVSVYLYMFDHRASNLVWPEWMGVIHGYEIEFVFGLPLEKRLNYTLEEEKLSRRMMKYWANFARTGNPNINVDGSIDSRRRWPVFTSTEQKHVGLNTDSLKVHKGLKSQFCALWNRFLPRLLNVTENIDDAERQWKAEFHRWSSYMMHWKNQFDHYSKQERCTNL

CC(C)=C/C=C1\C(=O)Oc2cc(O)ccc21 [Compound 1, (Z)-6-hydroxy-3-(3-methylbut-2-en-1-ylidene)benzofuran-2(3H)-one]
IC50 (AChE (EC 3.1.1.7)): > 100 µM
IC50 (BChE (EC 3.1.1.8) [1]; read-out: IC50 BChE): 45.5 ± 5.9 µM
BChE Inhibition Type (BChE (EC 3.1.1.8) [2]): Mixed uncompetitive
BChE αKi (BChE (EC 3.1.1.8) [2]): 43.0 µM
Ki (BChE (EC 3.1.1.8) [2]; [6]): 93.4 µM
BChE α (thermodynamic cooperativity factor) (BChE (EC 3.1.1.8) [2]): 0.46
time to almost reach equilibrium of cis-trans photoisomerization (1 and 6, ratio approximately 1:1) [3]: ≤ 30 min

COC(=O)/C(=C/C=C(C)C)c1ccc(O)cc1O [Compound 2, albaphenol B]
IC50 (AChE (EC 3.1.1.7)): > 100 µM
IC50 (BChE (EC 3.1.1.8) [1]; read-out: IC50 BChE): > 100 µM

COC(=O)C(CC=C(C)C)c1ccc(O)cc1O (centres unmarked) [Compound 3, methyl 2-(2,4-dihydroxyphenyl)-5-methylhex-4-enoate]
IC50 (AChE (EC 3.1.1.7)): > 100 µM
IC50 (BChE (EC 3.1.1.8) [1]; read-out: IC50 BChE): > 100 µM

CCOC(=O)C(CC=C(C)C)c1ccc(O)cc1O (centres unmarked) [Compound 4, ethyl 2-(2,4-dihydroxyphenyl)-5-methylhex-4-enoate]
IC50 (AChE (EC 3.1.1.7)): > 100 µM
IC50 (BChE (EC 3.1.1.8) [1]; read-out: IC50 BChE): 61 ± 3.4 µM

CC(C)(O)CCC(=O)c1ccc(O)cc1O [Compound 5, 1-(2,4-dihydroxyphenyl)-4-hydroxy-4-methylpentan-1-one]
IC50 (AChE (EC 3.1.1.7)): > 100 µM
IC50 (BChE (EC 3.1.1.8) [1]; read-out: IC50 BChE): > 100 µM

CC(C)=C/C=C1/C(=O)Oc2cc(O)ccc21 [Compound 6, (E)-6-hydroxy-3-(3-methylbut-2-en-1-ylidene)benzofuran-2(3H)-one]
IC50 (AChE (EC 3.1.1.7)): > 100 µM
AChE inhibitory effect, in words (AChE (EC 3.1.1.7); up to 100 μM where stated): no obvious inhibition
IC50 (BChE (EC 3.1.1.8) [1]; read-out: IC50 BChE): 94.8 µM and > 100 µM
BChE inhibitory effect, in words (BChE (EC 3.1.1.8) [1]): no obvious inhibition
time to almost reach equilibrium of cis-trans photoisomerization (1 and 6, ratio approximately 1:1) [3]: ≤ 30 min

COc1cc(O)cc(-c2cc3cc(O)c(OC)cc3o2)c1 [Compound 7, moracin B]
IC50 (AChE (EC 3.1.1.7)): > 100 µM
IC50 (BChE (EC 3.1.1.8) [1]; read-out: IC50 BChE): > 100 µM
BChE inhibitory effect, in words (BChE (EC 3.1.1.8) [1]): did not inhibit

CC(C)=CCc1c(O)cc(-c2cc3ccc(O)cc3o2)cc1O [Compound 8, moracin C]
IC50 (AChE (EC 3.1.1.7)): > 100 µM
IC50 (BChE (EC 3.1.1.8) [1]; read-out: IC50 BChE): 27.9 ± 3.5 µM
BChE Inhibition Type (BChE (EC 3.1.1.8) [2]): Mixed competitive
BChE αKi (BChE (EC 3.1.1.8) [2]): 71.1 µM
Ki (BChE (EC 3.1.1.8) [2]; [6]): 12.8 µM
BChE α (thermodynamic cooperativity factor) (BChE (EC 3.1.1.8) [2]): 5.55

CC1(C)C=Cc2c(O)cc(-c3cc4ccc(O)cc4o3)cc2O1 [Compound 9, moracin D]
IC50 (AChE (EC 3.1.1.7)): 81.2 ± 3.9 µM
IC50 (BChE (EC 3.1.1.8) [1]; IC50 BChE): 9.5 ± 3.2 µM
Ki (BChE (EC 3.1.1.8) [2]): 5.7 µM
BChE Inhibition Type (BChE (EC 3.1.1.8) [2]): Mixed competitive
BChE αKi (BChE (EC 3.1.1.8) [2]): 25.2 µM
BChE α (thermodynamic cooperativity factor) (BChE (EC 3.1.1.8) [2]): 4.42

Oc1cc(O)cc(-c2cc3ccc(O)cc3o2)c1 [Compound 10, moracin M]
IC50 (AChE (EC 3.1.1.7)): > 100 µM
IC50 (BChE (EC 3.1.1.8) [1]; read-out: IC50 BChE): > 100 µM
BChE inhibitory effect, in words (BChE (EC 3.1.1.8) [1]): did not inhibit
IC50 (BChE [4]): 38.1 µM

CC(C)=CCc1cc2cc(-c3cc(O)cc(O)c3)oc2cc1O [Compound 11, moracin N]
IC50 (AChE (EC 3.1.1.7)): 40.5 ± 4.7 µM
IC50 (BChE (EC 3.1.1.8) [1]; read-out: IC50 BChE): 13.5 ± 1.6 µM
BChE Inhibition Type (BChE (EC 3.1.1.8) [2]): Noncompetitive
BChE αKi (BChE (EC 3.1.1.8) [2]): 13.3 µM
Ki (BChE (EC 3.1.1.8) [2]; [6]): 12.7 µM
BChE α (thermodynamic cooperativity factor) (BChE (EC 3.1.1.8) [2]): 1.05

CC(C)(O)C1Cc2cc3cc(-c4cc(O)cc(O)c4)oc3cc2O1 (centres unmarked) [Compound 12, moracin O]
BChE inhibitory effect, in words (BChE (EC 3.1.1.8) [1]): neither moracin O (12) nor P (13) exhibited a significant inhibitory effect
IC50 (BChE [4]): 28.2 µM

CC1(C)Oc2cc3oc(-c4cc(O)cc(O)c4)cc3cc2C[C@H]1O [Compound 13, moracin P]
BChE inhibitory effect, in words (BChE (EC 3.1.1.8) [1]): neither moracin O (12) nor P (13) exhibited a significant inhibitory effect
IC50 (BChE [4]): 38 µM

CC(C)=CCc1c(O)cc2c(c1-c1cc3ccc(O)cc3o1)C=CC(C)(C)O2 [Compound 14, cathafuran C]
IC50 (AChE (EC 3.1.1.7)): > 100 µM
selective index (AChE IC50/BChE IC50 ratio) (BChE (EC 3.1.1.8) [1]): over 38
IC50 (BChE (EC 3.1.1.8) [1]; read-out: IC50 BChE): 2.6 ± 0.2 µM
BChE Inhibition Type (BChE (EC 3.1.1.8) [2]): Competitive
BChE αKi (BChE (EC 3.1.1.8) [2]): 22.7 µM
Ki (BChE (EC 3.1.1.8) [2]; [6]): 1.7 µM
BChE α (thermodynamic cooperativity factor) (BChE (EC 3.1.1.8) [2]): 13.35

CC(C)=CCc1c(O)cc(O)c(CC=C(C)C)c1-c1cc2ccc(O)cc2o1 [Compound 15, mulberrofuran V]
IC50 (AChE (EC 3.1.1.7)): > 100 µM
IC50 (BChE (EC 3.1.1.8) [1]; read-out: IC50 BChE): 27.1 ± 6.8 µM

COc1cc(O)c(CC=C(C)C)c(-c2cc3ccc(O)cc3o2)c1CC=C(C)C [Compound 16, mulberrofuran N]
IC50 (AChE (EC 3.1.1.7)): > 100 µM
IC50 (BChE (EC 3.1.1.8) [1]; read-out: IC50 BChE): 32.8 ± 4.2 µM

CC(C)=CCCC1(C)C=Cc2c(ccc3cc(-c4cc(O)cc(O)c4CC=C(C)C)oc23)O1 (centres unmarked) [mulberrofuran D2]
IC50 (BChE [5]): 1.51 µM

CC(C)=CCC/C(C)=C/Cc1c(O)ccc2cc(-c3cc(O)cc(O)c3CC=C(C)C)oc12 [mulberrofuran D]
IC50 (BChE [5]): 6.12 µM
